The text below walks through data of patent US8557816B2, “Aurora kinase modulators and method of use” (Amgen Inc., priority 2007, dated 2013).

SMILES strings stand for the structures.

The target of test [1] is T1, AuroraA-TPX2 (Homo sapiens, UniProt O14965).
T1 construct: 20 μL of AuroraA-TPX2 KD GST for a final volume of about 41 μL; GST
T1 sequence (O14965 133-383 limits assumed): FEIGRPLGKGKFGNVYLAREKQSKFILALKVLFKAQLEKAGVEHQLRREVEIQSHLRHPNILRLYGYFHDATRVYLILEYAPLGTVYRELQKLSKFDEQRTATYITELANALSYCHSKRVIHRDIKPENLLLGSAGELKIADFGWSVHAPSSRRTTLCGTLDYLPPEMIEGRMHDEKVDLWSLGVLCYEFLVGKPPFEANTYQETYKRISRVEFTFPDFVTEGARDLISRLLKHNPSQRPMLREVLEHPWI
T1 sequence (Q9ULW0 1-43 partner limits assumed): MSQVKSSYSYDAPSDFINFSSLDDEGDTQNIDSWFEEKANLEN
Kind of test: AuroraA-TPX2 Homogeneous Time Resolved Fluorescent (HTRF) kinase assay. The class given is biochemical. The note with it: average; read-out: AurA_IC50_IP (uM Avg). The method, boiled down: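 HTRF read-out (Eu 615 nm to APC 655 nm) of phosphorylated biotin-PLK, detected with 0.02 nM europium anti-phosphoPLK antibody and 0.0005 mg/mL SA-APC after overnight equilibration.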
(TR-FRET usually uses a lanthanide donor and a delayed reading to cut background.)

The target of test [2] is T2, AuroraB (Homo sapiens, UniProt Q96GD4).
T2 construct: 20 μL of AuroraB FL H is for a final volume of 41 μL; His
T2 sequence (Q96GD4 whole entry): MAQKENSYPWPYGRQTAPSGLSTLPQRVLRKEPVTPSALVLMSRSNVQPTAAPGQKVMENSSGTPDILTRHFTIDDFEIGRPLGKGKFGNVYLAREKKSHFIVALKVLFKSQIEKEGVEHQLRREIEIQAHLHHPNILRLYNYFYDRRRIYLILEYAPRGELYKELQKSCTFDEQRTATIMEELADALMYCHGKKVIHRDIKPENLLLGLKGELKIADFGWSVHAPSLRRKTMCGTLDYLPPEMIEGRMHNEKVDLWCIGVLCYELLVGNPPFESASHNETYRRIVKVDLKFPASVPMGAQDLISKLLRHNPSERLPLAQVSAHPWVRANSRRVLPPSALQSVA
Kind of test: AuroraB Homogeneous Time Resolved Fluorescent (HTRF) kinase assay. The note with it: average; read-out: AurB_IC50_IP (uM Avg). The format is biochemical. The method, boiled down: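 Read-out is time-resolved FRET between europium anti-phospho-H3 antibody and streptavidin-APC, added in EDTA buffer to stop the reaction and equilibrated about 60 min (ex 320, em 615 and 655 nm). Preceding reaction: ~90 min, full-length enzyme, ATP, 0.1 μM biotin-Histone H3 substrate, Mg/Mn HEPES buffer pH 7.5.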

With `COc1cnc2c(Oc3ccc(Nc4ncc(-c5ccccc5)c5ccccc45)cc3)ccnc2c1` [compound 144, N-(4-((7-(methyloxy)-1,5-naphthyridin-4-yl)oxy)phenyl)-4-phenyl-1-isoquinolinamine], the values for the IC50 in test [1] and in test [2] were 0.061 µM and 0.02 µM, respectively.
As to `CCc1cc(-c2ccc3c(c2)OCO3)nnc1Nc1ccc(Oc2ccnc3cc(OC)cnc23)cc1` [compound 594], the IC50 stood at 0.094 µM in test [1] and 0.051 µM in test [2].
For `COc1cnc2c(Sc3ccc(Nc4nnc(-c5cc(C)cs5)c5ccccc45)cc3F)ccnc2c1` [compound 528], in that order: 0.064 µM and 0.293 µM.
As to `Cc1csc(-c2nnc(Nc3ccc(Oc4ccnc5cccnc45)cc3)c3ccccc23)c1` [compound 447], the IC50 was 0.027 µM in test [1] and 0.013 µM in test [2].
Regarding `COCCOc1ccc(-c2nnc(Nc3ccc(Sc4ccnc5cc(OC)cnc45)cc3)c3ccccc23)cc1OCCOC` [compound 473], the IC50 in test [1] came to 0.073 µM; in test [2] it was 0.011 µM.
In the same order, the values of `COc1cc2nccc(Sc3ccc(Nc4nnc(-c5ccccc5)c5ccccc45)cc3)c2cc1OC` [compound 104, N-(4-((6,7-bis(methyloxy)-4-quinolinyl)thio)phenyl)-4-phenyl-1-phthalazinamine] are 0.036 µM and 0.042 µM.
For `Cc1cc2nccc(Sc3ccc(Nc4nnc(-c5ccc(C)c(N)c5)c5ccccc45)cc3)c2o1` [compound 492], in that order: 0.142 µM and 0.046 µM.
For `COc1cnc2c(Sc3ccc(Nc4nnc(-c5cscn5)c5ccccc45)cc3)ccnc2c1` [compound 506], in that order: 0.748 µM and 0.089 µM.
For `Cc1ccc(-c2nnc(Nc3ccc(Oc4ccnc5ccoc45)cc3)c3ccccc23)cc1N` [compound 480], the IC50 in test [1] worked out at 0.162 µM; in test [2] it was 0.013 µM.
For `COc1cnc2c(Oc3ccc(Nc4nnc(-c5ccc(Cl)cc5)c5ccccc45)cc3OC)ccnc2c1` [compound 566], the IC50 in test [1] was 0.093 µM; in test [2], 0.043 µM.
For `CCc1cc(-c2ccccc2)nnc1Nc1ccc(Sc2ccnc3cc(OC)cnc23)cc1` [compound 274, 4-ethyl-N-(4-(7-methoxy-1,5-naphthyridin-4-ylthio)phenyl)-6-phenylpyridazin-3-amine], the results for the IC50 in test [1] and in test [2] were 0.066 µM and 0.004 µM, respectively.
For `CCc1cc(-c2ccccc2OC)nnc1Nc1ccc(Sc2ccnc3cc(OC)cnc23)cc1` [compound 609], in that order: 0.123 µM and 0.02 µM.
Turning to `COc1cc2nccc(Oc3ccc(Nc4nnc(-c5cc(C)ccn5)c5ccccc45)cc3)c2cc1OC` [compound 117, N-(4-((6,7-bis(methyloxy)-4-quinolinyl)oxy)phenyl)-4-(4-methyl-2-pyridinyl)-1-phthalazinamine], the results for the IC50 in test [1] and in test [2] were 0.057 µM and 0.043 µM, respectively.
In the same order, the values of `COc1cnc2c(Oc3ccc(Nc4nnc(-c5ccc6c(c5)CC(C)(C)O6)c5ccccc45)cc3)ccnc2c1` [compound 136, 4-(2,2-dimethyl-2,3-dihydro-1-benzofuran-5-yl)-N-(4-((7-(methyloxy)-1,5-naphthyridin-4-yl)oxy)phenyl)-1-phthalazinamine] are 0.037 µM and 0.016 µM.
For `Cc1csc(-c2nnc(Nc3ccc(Oc4ccnc5cc(C(N)=O)ccc45)cc3)c3ccccc23)n1` [compound 95, 4-((4-((4-(4-methyl-1,3-thiazol-2-yl)-1-phthalazinyl)amino)phenyl)oxy)-7-quinolinecarboxamide], the results for the IC50 in test [1] and in test [2] were 0.027 µM and 0.002 µM, respectively.
For `c1ccc2c(-c3ccc4c(c3)OCO4)nnc(Nc3ccc(Oc4ccnc5ccncc45)cc3)c2c1` [compound 424], in that order: 0.055 µM and 0.004 µM.
For `COc1ccc2ncnc(Oc3ccc(Nc4nnc(-c5cc(C)cs5)c5ccccc45)cc3)c2c1` [compound 565], in that order: 0.686 µM and 0.108 µM.
